We go through 1 compound from patent publication US8653071B2, “α4β2 neuronal nicotinic acetylcholine receptor ligands” (Suven Life Sciences Limited, priority 2009, dated 2014).

Usually Ki stands for a measure of affinity in units of concentration, obtained from inhibition or displacement. What is called bioavailability is dose-corrected exposure relative to a reference, in per cent. Read a low bioavailability as little systemic uptake. For orientation: AUC(0-t) means exposure summed from dosing to a finite time, without extrapolation to infinity. A lower AUC(0-t) goes with low exposure. For orientation: Cmax means the maximum level reached in the sampled fluid or tissue. Usually Tmax stands for the time from dosing to the highest level. The term half-life denotes how long it takes for the measured level to halve. The low end stands for fast loss, the high end for slow loss.

For series [1], the target named is Nicotinic Acetylcholine α4β2 Receptor (UniProt P09483+P12390). The series can be described thus: Binding assay for human or rat nicotinic acetylcholine α4β2 receptor ([3H]Cytisine displacement). The note with it: [3H]Cytisine 2.5 nM; rat brain frontal cortex or recombinant human receptor in CHO cells (not specified which); read-out: Ki. As for the experimental part: Binding Assay for Human or Rat Nicotinic Acetylcholine α4β2 Receptor
• Receptor source: Rat brain frontal cortex or recombinant human cDNA expressed in CHO cells • Radioligand: [^3H]Cytisine 15-40 Ci/mmole • Final ligand concentration—[2.5 nM] • Non-specific determinant: Epibatidine—[0.1 μM] • Reference compound: Epibatidine • Positive control: Epibatidine Incubation Conditions:
Increasing concentrations of test compounds or standard were incubated with membrane receptors and radioligand in 120 mM NaCl, 2.5 mM KCl, 1 mM CaCl2, 1 mM MgCl2 and 50 mM TRIS-HCl (pH 7.4) for 60 minutes at room temperature. The reaction was terminated by rapid vacuum filtration onto the glass fiber filters. Radioactivity trapped onto the filters was determined and compared to the control values in order to ascertain any interactions of the test compound(s) with either cloned human or rat receptor binding site.
Literature Reference: Bunnelle W. H., Daanen J. F., Ryther K. B., Schrimpf M. R., Dart M. J., Gelain A., Meyer M. D., Frost J. M., Anderson D. J., Buckley M., Curzon P., Cao Y-J., Puttfarcken P., Searle X., Ji J., Putman C. B., Surowy C., Toma L. and Barlocco D. Structure-Activity Studies and Analgesic Efficacy of N-(3-Pyridinyl)-Bridged Bicyclic Diamines, Exceptionally Potent Agonists at Nicotinic Acetylcholine Receptors. J. Med. Chem. 2007, 50, […].

A short description of series [2]: Rodent pharmacokinetic study. The note with it: Wistar, in vivo, Wister rat/Male; for AUC(0-t) / Cmax / Tmax / half-life: 5 mg/kg. The format is in vivo. As to the method:
Rodent Pharmacokinetic Study
Three to five animals were housed in each cage. Animals were kept fasted over night and maintained on a 12 hours light/dark cycle. Three rats were dosed NCE orally (15 or 5 mg/kg) and intravenously (5 mg/kg) on day 0 and day 2
At each time point blood was collected by jugular vein. Plasma was stored frozen at −20° C. until analysis. The concentrations of the NCE compound in plasma were determined using LC-MS/MS method. Schedule time points: Pre dose 0.25, 0.5, 1, 1.5, 2, 3, 4, 6, 8, 10, 12 and 24 hours after dosing (n=3).
Pharmacokinetic parameters Cmax, Tmax, AUCt, T1/2 and Bioavailability were calculated by non-compartmental model using software WinNonlin version 5.0.1.

In series [3] the test system is Male Wister rats. The series can be described thus: Object recognition task model. Conditions: 0.1 mg/kg, p.o. The format is in vivo, rat. As to the method: Object Recognition Task Model
The cognition-enhancing properties of compounds of this invention were estimated using a model of animal cognition: the object recognition task model.
Male Wister rats (230-280 grams) obtained from N. I. N. (National Institute of Nutrition, Hyderabad, India) was used as experimental animals. Four animals were housed in each cage. […] Also the rats were habituated to individual arenas for 1 hour in the absence of any objects.
One group of 12 rats received vehicle (1 mL/Kg) orally and another set of animals received compound of the formula (I) either orally or i.p., before one hour of the familiar (T1) and choice trial (T2).
The experiment was carried out in a 50×50×50 cm open field made up of acrylic. In the familiarization phase, (T1), the rats were placed individually in the open field for 3 minutes, in which two identical objects (plastic bottles, 12.5 cm height×5.5 cm diameter) covered in yellow masking tape alone (a1 and a2) were positioned in two adjacent corners, 10 cm. from the walls. After 24 hours of the (T1) trial for long-term memory test, the same rats were placed in the same arena as they were placed in T1 trial. Choice phase (T2) rats were allowed to explore the open field for 3 minutes in presence of one familiar object (a3) and one novel object (b) (Amber color glass bottle, 12 cm high and 5 cm in diameter). Familiar objects presented similar textures, colors and sizes. During the T1 and T2 trial, explorations of each object (defined as sniffing, licking, chewing or having moving vibrissae whilst directing the nose towards the object at a distance of less than 1 cm) were recorded separately by stopwatch. Sitting on an object was not regarded as exploratory activity, however, it was rarely observed.
T1 is the total time spent exploring the familiar objects (a1+a2).
T2 is the total time spent exploring the familiar object and novel object (a3+b).
The object recognition test was performed as described by Ennaceur, A., Delacour, J., 1988, A new one-trial test for neurobiological studies of memory in rats—Behavioural data, Behav. Brain Res., 31, 47-59.

The test system of the next series is Male Sprague Dawley rats. The series can be described thus: DRL-72s model of animal depression. Conditions: p.o.; rat. The format is in vivo. As for the experimental part:
The antidepressant properties of compounds of this invention were evaluated using a model of animal depression: the DRL-72s model. Male Sprague Dawley rats were used as experimental animals. Rats are trained to lever press for a 4″ access to 0.025 ml of water for each correct response during daily 60 minute sessions. All testing takes place on weekdays only. At the beginning of each session, the house light is illuminated and remains lit until the session ends. No other stimuli are presented during testing. After successful lever press training, rats are then required to respond under a DRL-24 second schedule, where only lever presses that are separated by 24 seconds are reinforced. Upon stable responding on a DRL-24 second schedule (5-10 sessions), rats are trained on a DRL-72 second schedule until responding stabilizes at approximately 15% efficiency (approx 25-35 sessions). Specifically, rats receive a reinforcer for each response that is emitted at least 72 seconds after the previous response (IRT). […] Efficiency is recorded as number of reinforced responses÷total number of responses. After stable baseline responding is achieved, defined as responding for 4 consecutive sessions with no more than 10% variability, animals begin drug testing. Animals receive drug no more than 1× per week.

For series [4], the system named is Male Wister rats. The series can be described thus: Reversal of formalin induced nociception. The note with it: p.o.; rat. Format: in vivo. As for the experimental part: Reversal of Formalin Induced Nociception
The anti-nociceptive properties of compounds of this invention were evaluated using a model of pain: the Formalin Induced Nociception model. Male Wister rats (230-280 grams) obtained from N. I. N. (National Institute of Nutrition, Hyderabad, India) was used as experimental animals.
Rats were habituated for 20 minutes in the arena before the experiment was started. Duration of licks, bites and flinches were noted from 0-10 minutes and 20-35 minutes after administration of formalin, subplantar into the right hind paw at concentrations of 5% v/v. 50 μL of water for injection was injected into the right hind paw of the rats of the sham group. Compounds of this invention were administered orally prior to formalin administration.

The nature of another series: in vivo. Conditions: male, Wistar, rat, po, 5 mg/kg.

Experimental for in vivo: Rodent Brain Penetration Study
Three animals were housed in each cage. Animals were given water and food ad libitum throughout the experiment, and maintained on a 12 hours light/dark cycle.
NCE compound was dissolved in water and administered orally. At Tmax (0.5, 1.0 and 2.0) animals were sacrificed to collect the plasma and brain tissue and were homogenized. Plasma and Brain was stored frozen at −20° C. until analysis. The concentrations of the NCE compound in plasma and Brain were determined using LC-MS/MS method.
The NCE compounds were quantified in plasma and brain homogenate by validated LC-MS/MS method using solid phase extraction technique. NCE compounds were quantified in the calibration range of 1-500 ng/mL in plasma and brain homogenate. Study samples were analyzed using calibration samples in the batch and quality control samples spread across the batch. Extents of brain-blood ratio were calculated (Cb/Cp).

For the compound `NCC1CC2CC2N1c1cncc(Cl)c1.O=C(O)/C=C/C(=O)O` (stereo not shown) [Example 13, [2-(5-Chloropyridin-3-yl)-2-aza-bicyclo[3.1.0]hex-3-yl]methylamine fumarate], in series [1], the inhibition constant (Ki) turned out to be 3.5 nM. Besides, the bioavailability in series [2] (5 mg/kg Per-Oral vs 5 mg/kg Intravenous) came out at 89 ± 18%. In series [2] (Intravenous), the area under the curve AUC(0-t) is 1760 ± 228 ng·h/mL, the concentration peaked (Cmax) at 836 ± 239 ng/mL, the time of peak concentration (Tmax) was found to be 4.8 min and the half-life was 85.8 ± 6.6 min. In series [2] (Per-Oral), the AUC(0-t) came to 1540 ± 165 ng·h/mL, the peak concentration (Cmax) was found to be 753 ± 277 ng/mL, the time of peak concentration (Tmax) is 22.8 ± 8.4 min and the half-life was 105 ± 24 min. The Inference result in the series on Male Wister rats [3] was “Active”. In the series on Male Wister rats [3] (choice trial), the “Exploration time mean ± S.E.M, Familiar object” value stood at 7.32 ± 1.04 s and the “Exploration time mean ± S.E.M, Novel object” value was determined as 22.77 ± 2.12 s. Further, the “Dose (DRL-72s)” value in the series on Male Sprague Dawley rats is on record as “≧10 mg/kg, p.o”. The “Dose (reversal of formalin induced nociception)” value in the series with Male Wister rats [4] was “≧30 mg/kg, p.o”. The compound further displayed a Kp in the series “in vivo” of 10.8 ± 1.29.
